Paper PMC10818749, “Toxicity Studies of Cardiac-Targeting Peptide Reveal a Robust Safety Profile” (Pharmaceutics, 2024)
“Also recorded” adds a separate entry of the source. Ends that are not written are not given here.

Columns and labels:
HEK-Kir2.1 = biological target: T1, HEK-Kir2.1 (Homo sapiens, UniProt P63252); type: cell-based; conditions: CTP 0.1 to 30 µM; HEK cells; step to -120mV; 0.1% Pluronic F-68
T1 construct: host or cells: HEK

CAV1.2 = CAV1.2 (Homo sapiens, UniProt Q13936); assay: in vitro; type: cell-based; conditions: blocker; FLIPR Tetra; up to 30 µM; read-out: RC50 (the source's name)
Method: (§1) Ion Channel Assays: Cell lines were grown, plated, and loaded with 1× loading buffer containing 1× dye and 2.5 mM freshly prepared probenecid. Assays were performed, and activity was measured using a FLIPR Tetra. Percent of activation and percent of inhibition were calculated to determine agonist and antagonist activity, respectively. […]
(§2) The KINOMEscan screening platform employs a novel and propri- Membrane Potential Assay etary active site-directed competition binding assay to quantitatively The FLIPR® Membrane Potential Assay Kit is used which utilizes a pro-measure interactions between test compounds and the kinases. prietary fluorescent indicator dye in combination with a quencher to This robust and reliable assay technology affords investigators the reflect real-time membrane potential changes associated with ion ability to extensively annotate compounds with accurate, precise channel activation and ion transporter proteins. […]
Compounds that bind the kinase active site and directly (sterically) be monitored within a single experiment. […]
a quantitative, precise and ultra-sensitive qPCR method that detects the receptor signals release of intracellular calcium, which results in the associated DNA label (D). In a similar manner, dissociation con- an increase of dye fluorescence. […]
Neurotransmitter Transporter Uptake Assay spectrophotometric, fluorometric, and luminescent readouts. […]

seven ion channels = assay: Eurofins Ion Channel Cardiac Profiler Panel (all seven channels); type: cell-based, human; conditions: CTP 0.1 to 30 µM
hERG = hERG (Homo sapiens, UniProt Q12809); assay: in vitro; type: cell-based; conditions: up to 30 µM
hERG, sequence (Q12809 whole entry): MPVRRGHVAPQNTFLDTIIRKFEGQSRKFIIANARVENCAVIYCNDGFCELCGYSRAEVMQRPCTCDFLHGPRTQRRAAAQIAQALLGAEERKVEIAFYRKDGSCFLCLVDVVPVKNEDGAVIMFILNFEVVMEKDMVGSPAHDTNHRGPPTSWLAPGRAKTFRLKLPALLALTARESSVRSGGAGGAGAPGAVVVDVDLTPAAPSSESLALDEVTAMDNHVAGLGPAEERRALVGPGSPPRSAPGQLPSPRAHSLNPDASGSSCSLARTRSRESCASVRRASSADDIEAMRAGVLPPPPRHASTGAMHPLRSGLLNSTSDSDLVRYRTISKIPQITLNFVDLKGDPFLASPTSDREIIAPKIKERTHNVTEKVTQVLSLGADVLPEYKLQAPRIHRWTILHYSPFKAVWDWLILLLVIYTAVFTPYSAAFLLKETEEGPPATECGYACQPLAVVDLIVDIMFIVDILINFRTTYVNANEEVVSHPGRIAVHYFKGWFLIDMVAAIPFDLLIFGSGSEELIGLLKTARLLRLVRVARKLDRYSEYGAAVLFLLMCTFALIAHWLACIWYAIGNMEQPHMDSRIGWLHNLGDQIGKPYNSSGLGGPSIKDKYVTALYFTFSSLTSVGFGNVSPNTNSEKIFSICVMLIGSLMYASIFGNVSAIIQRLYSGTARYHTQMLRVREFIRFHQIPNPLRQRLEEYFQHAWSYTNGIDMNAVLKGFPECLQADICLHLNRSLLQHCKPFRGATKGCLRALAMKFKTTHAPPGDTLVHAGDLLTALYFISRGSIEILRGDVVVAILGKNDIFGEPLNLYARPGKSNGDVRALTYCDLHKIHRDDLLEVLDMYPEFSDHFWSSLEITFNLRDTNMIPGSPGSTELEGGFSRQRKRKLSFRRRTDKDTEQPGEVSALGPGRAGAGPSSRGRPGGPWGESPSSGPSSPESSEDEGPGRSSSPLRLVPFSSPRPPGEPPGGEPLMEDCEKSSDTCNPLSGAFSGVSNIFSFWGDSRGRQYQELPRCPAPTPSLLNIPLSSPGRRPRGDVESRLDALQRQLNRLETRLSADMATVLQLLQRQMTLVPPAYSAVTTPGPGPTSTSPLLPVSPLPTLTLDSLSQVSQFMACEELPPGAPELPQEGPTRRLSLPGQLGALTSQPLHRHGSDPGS
Method: as §1
The FLIPR Potassium Assay Kit from Molecular Devices is used. It exploits the permeability of thallium ions (Tl+) through both voltage-and ligand-gated potassium (K+) channels. A novel, highly-sensiti ve
Tl+ indicator dye is utilized which produces a bright fluorescent signal upon the binding to Tl+ conducted through potassium chan-nels. […]
KINOMEscan® Assay fluorescence for improved signal/noise ratio.
as §2

[1] = test system: human left ventricular myocyte cell line; assay: Fluorescence-activated cell sorting (FACS) live-dead viability; type: cell-based; conditions: 10 µM, 30 min incubation, live-dead stain, biological triplicates and technical quadruplicates (n = 4), vs no treatment or vehicle
Method: Fluorescence-Activated Cell Sorting Assays: CTP was tested in a human left ventricular myocyte cell line (Celprogen, Torrance, CA, USA; cat #36044-15) for uptake and assessment of its effects on cell viability. Cells were plated onto 6-well plates at a density of 100,000 cells per well and incubated overnight at 37 °C/5% CO2. The following day media was replaced with fresh media containing 10 µM CTP-Cy5.5, or a random (RAN-CY5.5) peptide. A yellow live-dead stain (Invitrogen, Carlsbad, CA, USA; cat #L34968) was added to all wells, including the negative control or vehicle only treated controls, and cells were incubated for 30 min, after which media aspirated, cells washed 3× with pre-warmed phosphate-buffered saline (PBS), trypsinized, and collected. After collection, cells were washed once with PBS, fixed with 2% paraformaldehyde at room temperature for 10 min, washed once again and resuspended in 1000 µL of PBS. Fluorescence activated cell sorting (FACS) was performed using lasers selected for live-dead and Cy5.5 fluorophores, and 10,000 cells counted in Fortessa. The data generated were gated on the presence of the live-dead stain providing the percent viability of cells [(live/(live + dead cells)) × 100] after treatment with various peptides.

B6-wildtype mice = assay: Blood pressure pre- and post-CTP injection; type: in vivo, mouse; conditions: CTP 10 mg/Kg i.v.; 6 h post-injection vs pre-injection; six mice, isoflurane
Method: Blood Pressure Pre- and Post-CTP Injection: Six B6-wildtype mice were obtained from the Jackson Laboratory. Blood pressure was taken using a non-invasive blood pressure system from Kent Scientific. Mice were anesthetized using 2.5% isoflurane exposure for 5 min, placed in a tube holder, and warmed using a warming blanket for approximately 15 min before their tails were fitted with blood pressure cuffs. A total of 21 blood pressure readings were taken, and average systolic and diastolic blood pressure calculated. After baseline blood pressure was established, mice were injected intravenously with 10 mg/Kg of CTP, and blood pressure was measured again 6 h post-injection.

T1 sequence (P63252 whole entry): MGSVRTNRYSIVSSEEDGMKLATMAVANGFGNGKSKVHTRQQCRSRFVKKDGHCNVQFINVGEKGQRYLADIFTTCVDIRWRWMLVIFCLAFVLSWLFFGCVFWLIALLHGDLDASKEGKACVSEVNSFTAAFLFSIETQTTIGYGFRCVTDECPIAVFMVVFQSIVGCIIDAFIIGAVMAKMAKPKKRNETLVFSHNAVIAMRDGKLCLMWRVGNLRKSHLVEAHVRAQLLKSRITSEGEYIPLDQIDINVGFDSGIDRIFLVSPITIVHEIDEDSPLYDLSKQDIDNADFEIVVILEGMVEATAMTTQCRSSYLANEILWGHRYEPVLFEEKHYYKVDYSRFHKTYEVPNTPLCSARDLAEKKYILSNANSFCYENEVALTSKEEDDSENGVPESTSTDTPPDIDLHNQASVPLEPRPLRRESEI

## APWHLSSQYSRT [CTP]
HEK-Kir2.1
  Estimated IC50: N/C (Not calculable, inhibition >25% was not observed.)
CAV1.2
  IC50: > 30 µM
Seven ion channels; seven ion channels
  IC50 values: not calculable
Seven ion channels; vs control substances
  inhibition/activation across all seven ion channels: no inhibition/activation was observed; also recorded: did not inhibit the activation of any tested
hERG; SAFETYscan ion channel assay
  blocking or activation: no significant blocking or activation
hERG; human, blocker, FLIPR Tetra, read-out: RC50 (the source's name)
  IC50: > 30 µM
[1]
  cell viability: remained unchanged
B6-wildtype mice
  diastolic blood pressure: No significant difference; also recorded: no significant (ns) change
  systolic blood pressure: No significant difference; also recorded: no significant (ns) change
